Test results taken from the NIST ThermoML archive (doi:10.1021/je0503857).
± gives the expanded uncertainty stated by the source.

Experiments:
[1] = Molar enthalpy of transition or fusion; conditions: DSC
[2] = molar heat capacity at constant pressure; conditions: 298.15 K; 101.33 kPa; Crystal; Small sample (50 mg) DSC
[3] = for vapor or sublimation pressure: Liquid, Gas chromatography; for Normal melting temperature: Crystal, DTA

SMILES | Molar enthalpy of transition or fusion ([1]; Crystal) [kcal/mol] | molar heat capacity at constant pressure [2] [J/K/mol] | vapor or sublimation pressure ([3]; 330 K) [kPa] | vapor or sublimation pressure ([3]; 360 K) [kPa] | vapor or sublimation pressure ([3]; 390 K) [kPa] | vapor or sublimation pressure ([3]; 420 K) [kPa] | vapor or sublimation pressure ([3]; 450 K) [kPa] | vapor or sublimation pressure ([3]; 480 K) [kPa] | vapor or sublimation pressure ([3]; 510 K) [kPa] | Normal melting temperature [3] [°C] | Molar enthalpy of transition or fusion ([1]; Crystal 2) [kcal/mol] | vapor or sublimation pressure ([3]; 298.15 K) [kPa] | vapor or sublimation pressure ([3]; 300 K) [kPa]
CCCCCCCCCCCCCCCCCCCCCCO [1-docosanol] | 19.8 ± 0.526 | 625 ± 13 | 5.89e-07 ± 7.1e-08 | 2.687e-05 ± 2.7e-06 | 0.000588 ± 5.9e-05 | 0.007063 ± 0.00071 | 0.0523 ± 0.0052 | 0.2627 ± 0.026 | 0.9664 ± 0.097 | 71.4 ± 0.5 |  |  | 
CCCCCCCCCCCCCCCCCCCCO [1-eicosanol] |  | 571.2 ± 11 | 3.509e-06 ± 3.6e-07 | 0.0001228 ± 1.2e-05 | 0.002151 ± 0.00021 | 0.02156 ± 0.0022 | 0.1382 ± 0.014 | 0.6201 ± 0.062 | 2.091 ± 0.21 | 64 ± 1 | 18.7 ± 0.502 | 3.215e-08 ± 1.3e-08 | 4.345e-08 ± 1.4e-08
CCCCCCCCCCCCCCCCCO [1-heptadecanol] |  | 490.5 ± 9.8 | 4.724e-05 ± 4.8e-06 | 0.001125 ± 0.00011 | 0.01426 ± 0.0014 | 0.1098 ± 0.011 | 0.571 ± 0.057 | 2.174 ± 0.22 | 6.457 ± 0.65 | 52.2 ± 0.5 | 15.2 ± 0.406 | 6.86e-07 ± 7.9e-08 | 9.02e-07 ± 1e-07
CCCCCCCCCCCCCCCCCCCCCCCCCCO [1-hexacosanol] | 24.8 ± 0.645 | 732.6 ± 15 | 1.78e-08 ± 1.2e-08 | 1.364e-06 ± 1.5e-07 | 4.614e-05 ± 4.6e-06 | 0.0007898 ± 7.9e-05 | 0.007756 ± 0.00078 | 0.0486 ± 0.0049 | 0.212 ± 0.021 | 80.0 ± 0.5 |  | 6.401e-11 | 9.145e-11
CCCCCCCCCCCCCCCCCCO [1-octadecanol] |  | 517.4 ± 10 |  |  |  |  |  |  |  | 52.5 ± 5 | 16.6 ± 0.43 |  | 
CCCCCCCCCCCCCC(O)CCC (configuration not stated) [4-heptadecanol] | 8.53 ± 0.239 | 472.6 ± 9.5 |  |  |  |  |  |  |  | 38.4 ± 0.5 |  |  | 
CCCCCCCCCCCC(O)CCCCC (configuration not stated) [6-heptadecanol] | 11.7 ± 0.311 | 472.6 ± 9.5 | 0.0001082 ± 1.1e-05 | 0.002283 ± 0.00023 | 0.02614 ± 0.0026 | 0.1853 ± 0.019 | 0.901 ± 0.09 | 3.255 ± 0.33 | 9.287 ± 0.93 | 42.7 ± 0.5 |  | 1.813e-06 ± 1.9e-07 | 2.363e-06 ± 2.5e-07
CCCCCCCCCCC(O)CCCCCC (configuration not stated) [7-heptadecanol] | 6.88 ± 0.215 | 472.6 ± 9.5 | 0.0001153 ± 1.2e-05 | 0.002406 ± 0.00024 | 0.0273 ± 0.0027 | 0.192 ± 0.019 | 0.9282 ± 0.093 | 3.337 ± 0.33 | 9.481 ± 0.95 | 41.2 ± 0.5 |  | 1.959e-06 ± 2.1e-07 | 2.552e-06 ± 2.7e-07
CCCCCCCCC(O)CCCCCCCC [9-heptadecanol] | 10.3 ± 0.287 | 472.6 ± 9.5 | 0.0001127 ± 1.1e-05 | 0.002368 ± 0.00024 | 0.02704 ± 0.0027 | 0.1913 ± 0.019 | 0.929 ± 0.093 | 3.354 ± 0.34 | 9.568 ± 0.96 | 57.1 ± 0.5 |  | 1.895e-06 ± 2e-07 | 2.471e-06 ± 2.6e-07
CC(C)CCC[C@@H](C)[C@H]1CC[C@H]2[C@@H]3CC=C4C[C@@H](O)CC[C@]4(C)[C@H]3CC[C@]12C [.DELTA.5-cholesten-3β-ol] |  |  | 1.71e-08 ± 1.2e-08 | 1.132e-06 ± 1.2e-07 | 3.397e-05 ± 3.4e-06 | 0.0005237 ± 5.3e-05 | 0.004678 ± 0.00047 | 0.02685 ± 0.0027 | 0.1078 ± 0.011 |  |  | 7.557e-11 | 1.065e-10
